{
  "source": "patent US9925189B2",
  "about": "“Heterocyclic receptor agonists for the treatment of diabetes and metabolic disorders” (CymaBay Therapeutics, Inc., priority 2006, dated 2018)",
  "data": [
    {"biological_target": "T1, IC-GPCR2 (Homo sapiens, UniProt Q8TDV5, S309L)", "T1 construct": "expressed in transfected cells", "T1 sequence (Q8TDV5 1-335 S309L)": "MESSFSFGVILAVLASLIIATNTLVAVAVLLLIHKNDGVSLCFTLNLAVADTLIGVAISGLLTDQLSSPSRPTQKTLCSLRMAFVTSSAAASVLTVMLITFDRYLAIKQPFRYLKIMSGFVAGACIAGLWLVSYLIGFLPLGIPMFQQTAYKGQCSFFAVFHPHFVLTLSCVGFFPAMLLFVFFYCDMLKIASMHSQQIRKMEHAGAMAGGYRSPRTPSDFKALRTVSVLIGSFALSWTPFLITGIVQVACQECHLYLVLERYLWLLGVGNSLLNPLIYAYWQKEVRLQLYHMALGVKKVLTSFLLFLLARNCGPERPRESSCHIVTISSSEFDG", "experiment": "Stimulation of cAMP in CHO cells stably expressing IC-GPCR2 (HTRF cAMP assay)", "assay_type": "cell-based", "conditions": "0.5 h, 30 minutes, IC-GPCR2 stably expressing CHO cells, read-out: Activity at 10 uM (% change in FRET signal from DMSO control)", "description": "This assay was developed using a stable cell line expressing IC-GPCR-2, generated as follows. IC-GPCR2 (SEQ ID NO:1) was cloned into Gateway pDEST 40vector (Invitrogen), using the Gateway cloning system (invitrogen) according to the manufacturer's instructions. A stable cell line was generated by transfecting a 10 cm plate of CHO cells (source) with 8 ug of this construct using Transit-CHO transfection kit (Mirus). CHO cells were plated the day prior to transfection at a density of 3,000,000 cells/plate. Clones were selected using the antibiotic G418 at 500 ug/ml. 23 clones were picked and assayed for the expression of the receptor by measuring changes in intracellular cAMP levels in response to an IC-GPCR2 agonist.\nTo measure cAMP activity in response to IC-GPCR2 agonist, the clones were plated in 96 well plates at 17500 cells per well. On the day after plating, cells were incubated with the IC-CPCR2 agonist at […] for 30 minutes in Ham's F12 Media (Gibco) with 0.04% DMSO. cAMP was measured using the cAMP dynamic kit from Cis Bio (Bedford, Mass.) according to the manufacturer's instructions. Briefly, cells were lysed, and cAMP levels determined by competitive immunoassay using D2 labeled cAMP, and europium cryptate tagged anti cAMP antibody. When in close proximity, the D2 and europium cryptate undergo fluorescence resonance energy transfer (FRET), which is measured as a fluorescence ratio (665 nm/620 nm). Unlabelled cAMP in the cell lysate competed with the D2 labeled cAMP for the europium crypate labeled antibody. The resulting decrease in FRET signal corresponded to intracellular cAMP levels. Fluorescence was read on a BMG Labtech PHERAstar, software version 1.50.\nCompounds were dissolved in 100% DMSO to a concentration of […] to provide stock solutions. To determine activity against IC-GPCR2, compounds were incubated with IC-GPCR2 stably expressing cells (described above), at 6-8 concentrations ranging from 0.00003 to 10 micromolar, in 96 well plates, in 50 ul of Hams F12 media for 30 minutes. Cells were plated at 17500 cells per well 1 day before running the assay. All compounds were also screened against the parental CHO cells. cAMP was measured using the cAMP dynamic kit from Cis Bio (Bedford, Mass.), according to the manufacturer's instructions. Briefly, cells were lysed and cAMP levels determined by competitive immunoassay using D2 labeled cAMP, and europium cryptate tagged anti cAMP antibody. When in close proximity, the D2 and europium cryptate undergo fluorescence resonance energy transfer (FRET), which is measured as a fluorescence ratio (665 nm/620 nm). Unlabelled cAMP in the cell lysate competed with the D2 labeled cAMP for the europium crypate labeled antibody. The resulting decrease in FRET signal corresponded to intracellular cAMP levels.\nActivities of compounds disclosed in Table 1 and Table 2 below are expressed as the % change in FRET signal from DMSO control. “*” no activity observed when tested at 10 micromolar but no higher concentrations were tested. NT indicates the compound was not tested at the indicated concentration.", "units": {"activation at 10 µM": "%"}, "values": [
      {"smiles": "C[C@H]1CN(C(=O)OC(C)(C)C)CC[C@H]1c1nc(COc2ccc(-n3cnnn3)cc2)cs1", "note": "(stereo in doubt) [Example 144, 3-Methyl-4-[4-(4-tetrazol-1-yl-phenoxymethyl)-thiazol-2-yl]-piperidine-1-carboxylic acid tert-butyl ester]", "activation at 10 µM": 81},
      {"smiles": "C[C@H]1CN(C(=O)OC(C)(C)C)CC[C@H]1c1nc(COc2ccc(-n3cnnn3)cc2F)cs1", "note": "(stereo in doubt) [Example 145, 4-[4-(2-Fluoro-4-tetrazol-1-yl-phenoxymethyl)-thiazol-2-yl]-3-methyl-piperidine-1-carboxylic acid tert-butyl ester]", "activation at 10 µM": 73},
      {"smiles": "CCc1cnc(N2CC[C@@H](c3nc(COc4ccc(-n5cnnn5)cc4)cs3)[C@@H](C)C2)nc1", "note": "(stereo in doubt) [Example 199, 5-Ethyl-2-{3-methyl-4-[4-(4-tetrazol-1-yl-phenoxymethyl)-thiazol-2-yl]-piperidin-1-yl}-pyrimidine]", "activation at 10 µM": 78},
      {"smiles": "CCc1cnc(N2CC[C@@H](c3nc(COc4ccc(-n5cnnn5)cc4F)cs3)[C@@H](C)C2)nc1", "note": "(stereo in doubt) [Example 200, 5-Ethyl-2-{4-[4-(2-fluoro-4-tetrazol-1-yl-phenoxymethyl)-thiazol-2-yl]-3-methyl-piperidin-1-yl}-pyrimidine]", "activation at 10 µM": 82},
      {"smiles": "C[C@H]1CN(c2ncc(Cl)cn2)CC[C@H]1c1nc(COc2ccc(-n3cnnn3)cc2F)cs1", "note": "(stereo in doubt) [Example 201, 5-Chloro-2-{4-[4-(2-fluoro-4-tetrazol-1-yl-phenoxymethyl)-thiazol-2-yl]-3-methyl-piperidin-1-yl}-pyrimidine]", "activation at 10 µM": 87},
      {"smiles": "C[C@H]1CN(c2ncc(C(F)(F)F)cn2)CC[C@H]1c1nc(COc2ccc(-n3cnnn3)cc2F)cs1", "note": "(stereo in doubt) [Example 202, 2-{4-[4-(2-Fluoro-4-tetrazol-1-yl-phenoxymethyl)-thiazol-2-yl]-3-methyl-piperidin-1-yl}-5-trifluoromethyl-pyrimidine]", "activation at 10 µM": 83},
      {"smiles": "CC(C)(C)OC(=O)N1CCC(c2nc(COc3ccc(S(C)(=O)=O)cc3)cs2)CC1", "note": "[Example 1, 4-[4-(4-Methanesulfonyl-phenoxymethyl)-thiazol-2-yl]-piperidine-1-carboxylic acid tert-butyl ester]", "activation at 10 µM": 69},
      {"smiles": "CC(C)(C)OC(=O)N1CCC(c2nc(COc3ccc(-n4ccnc4)cc3)cs2)CC1", "note": "[Example 2, 4-[4-(4-Imidazol-1-yl-phenoxymethyl)-thiazol-2-yl]-piperidine-1-carboxylic acid tert-butyl ester]", "activation at 10 µM": 50},
      {"smiles": "CC(=O)Nc1ccc(OCc2csc(C3CCN(C(=O)OC(C)(C)C)CC3)n2)cc1", "note": "[Example 3, 4-[4-(4-Acetylamino-phenoxymethyl)-thiazol-2-yl]-piperidine-1-carboxylic acid tert-butyl ester]", "activation at 10 µM": 63},
      {"smiles": "CC(C)(C)OC(=O)N1CCC(c2nc(COc3ccc(-n4cncn4)cc3)cs2)CC1", "note": "[Example 5, 4-[4-(4-[1,2,4]Triazol-1-yl-phenoxymethyl)-thiazol-2-yl]-piperidine-1-carboxylic acid tert-butyl ester]", "activation at 10 µM": 60},
      {"smiles": "CC(C)(C)OC(=O)N1CCC(c2nc(COc3ccc(N4CCCC4=O)cc3)cs2)CC1", "note": "[Example 6, 4-{4-[4-(2-Oxo-pyrrolidin-1-yl)-phenoxymethyl]-thiazol-2-yl}-piperidine-1-carboxylic acid tert-butyl ester]", "activation at 10 µM": 68},
      {"smiles": "CC(C)(C)OC(=O)N1CCC(c2nc(COc3ccc(-n4cnnn4)cc3)cs2)CC1", "note": "[Example 7, 4-[4-(4-Tetrazol-1-yl-phenoxymethyl)-thiazol-2-yl]-piperidine-1-carboxylic acid tert-butyl ester]", "activation at 10 µM": 64},
      {"smiles": "CCc1cnc(N2CCC(c3nc(COc4ccc(S(N)(=O)=O)cc4)cs3)CC2)nc1", "note": "[Example 9, 4-{2-[1-(5-Ethyl-pyrimidin-2-yl)-piperidin-4-yl]-thiazol-4-ylmethoxy}-benzenesulfonamide]", "activation at 10 µM": 54},
      {"smiles": "CCc1cnc(N2CCC(c3nc(COc4cccc(-n5cnnn5)c4)cs3)CC2)nc1", "note": "[Example 11]", "activation at 10 µM": 34},
      {"smiles": "CCc1cnc(N2CCC(c3nc(COc4ccc(-n5nnnc5C)cc4)cs3)CC2)nc1", "note": "[Example 12, 5-Ethyl-2-(4-{4-[4-(5-methyl-tetrazol-1-yl)-phenoxymethyl]-thiazol-2-yl}-piperidin-1-yl)-pyrimidine]", "activation at 10 µM": 70},
      {"smiles": "CCc1cnc(N2CCC(c3nc(COc4ccc(SC)c(C)c4)cs3)CC2)nc1", "note": "[Example 13]", "activation at 10 µM": 94},
      {"smiles": "CCc1cnc(N2CCC(c3nc(COc4ccc(S(C)(=O)=O)c(C)c4)cs3)CC2)nc1", "note": "[Example 14, 5-Ethyl-2-{4-[4-(4-methanesulfonyl-3-methyl-phenoxymethyl)-thiazol-2-yl]-piperidin-1-yl}-pyrimidine]", "activation at 10 µM": 84},
      {"smiles": "CCc1cnc(N2CCC(c3nc(COc4ccc5sc(=O)oc5c4)cs3)CC2)nc1", "note": "[Example 15, 6-{2-[1-(5-Ethyl-pyrimidin-2-yl)-piperidin-4-yl]-thiazol-4-ylmethoxy}-benzo[1,3]oxathiol-2-one]", "activation at 10 µM": 55},
      {"smiles": "CCc1cnc(N2CCC(c3nc(COc4ccc(SC(F)(F)F)cc4)cs3)CC2)nc1", "note": "[Example 16, 5-Ethyl-2-{4-[4-(4-trifluoromethylsulfanyl-phenoxymethyl)-thiazol-2-yl]-piperidin-1-yl}-pyrimidine]", "activation at 10 µM": 56},
      {"smiles": "CC(C)(C)OC(=O)N1CCC(c2nc(COc3ccc(-n4cnnn4)c(F)c3)cs2)CC1", "note": "[Example 17, 4-[4-(3-Fluoro-4-tetrazol-1-yl-phenoxymethyl)-thiazol-2-yl]-piperidine-1-carboxylic acid tert-butyl ester]", "activation at 10 µM": 69},
      {"smiles": "CC(C)(C)OC(=O)N1CCC(c2nc(COc3ccc(S(C)(=O)=O)cc3F)cs2)CC1", "note": "[Example 18, 4-[4-(2-Fluoro-4-methanesulfonyl-phenoxymethyl)-thiazol-2-yl]-piperidine-1-carboxylic acid tert-butyl ester]", "activation at 10 µM": 72},
      {"smiles": "CC(C)(C)OC(=O)N1CCC(c2nc(COc3ccc(-n4cnnn4)cc3F)cs2)CC1", "note": "[Example 19, 4-[4-(2-Fluoro-4-tetrazol-1-yl-phenoxymethyl)-thiazol-2-yl]-piperidine-1-carboxylic acid tert-butyl ester]", "activation at 10 µM": 76},
      {"smiles": "CC(C)(C)OC(=O)N1CCC(c2nc(CS(=O)(=O)c3ccc(S(C)(=O)=O)cc3)cs2)CC1", "note": "[Example 21, 4-[4-(4-Methanesulfonyl-benzenesulfonylmethyl)-thiazol-2-yl]-piperidine-1-carboxylic acid tert-butyl ester]", "activation at 10 µM": 23},
      {"smiles": "CC(C)OC(=O)N1CCC(c2nc(COc3ccc(S(C)(=O)=O)cc3)cs2)CC1", "note": "[Example 22, 4-[4-(4-Methanesulfonyl-phenoxymethyl)-thiazol-2-yl]-piperidine-1-carboxylic acid isopropyl ester]", "activation at 10 µM": 62},
      {"smiles": "CS(=O)(=O)c1ccc(OCc2csc(C3CCN(C(=O)OCc4ccccc4)CC3)n2)cc1", "note": "[Example 23, 4-[4-(4-Methanesulfonyl-phenoxymethyl)-thiazol-2-yl]-piperidine-1-carboxylic acid benzyl ester]", "activation at 10 µM": 37},
      {"smiles": "CC(C)COC(=O)N1CCC(c2nc(COc3ccc(S(C)(=O)=O)cc3)cs2)CC1", "note": "[Example 24, 4-[4-(4-Methanesulfonyl-phenoxymethyl)-thiazol-2-yl]-piperidine-1-carboxylic acid isobutyl ester]", "activation at 10 µM": 58}
    ]}
  ]
}
